For experiment [1], the target named is T1, purified lapine LBP (Oryctolagus cuniculus, UniProt P17454).
T1 construct: the mature secreted protein present in impure form in acute phase sera; from tissue; host or cells: acute phase rabbit serum (silver nitrate induced), Bio-Rex 70 and Mono-Q columns
The experiment can be described thus: Microtiter binding assay: inhibition of LBP binding to Re595 LPS-coated plates. Set-up: species or system rabbit. The settings on record: for IC50: read-out: ED50 (the source's name) (converted); for Inhibition of LBP binding to LPS plate, in words: qualitative analysis of Table IV. From the text: (§1) The binding of purified lapine LBP to LPS immobilized on plastic microtiter plates has also been examined. The presence of LBP bound to LPS was detected with goat anti-rabbit LBP and peroxidase conjugated rabbit anti-goat IgG.
The data from these studies are shown in Table IV, below, where the numerical results are the concentrations necessary to reduce the binding of 1 microgram (ug)/ml LBP to the plate by 50 percent; i.e., ED50. It is noted that in some instances, the structure of the inhibitor is either not fully defined or the inhibitor is heterogeneous, thereby preventing a calculation of a molar concentration for ED50.
Microtiter plates were coated with LPS by incubating 100 ul/well of 30 ug/ml Re595 LPS in 0.1M Na2 Co3, 20 mM EDTA, pH 9.6 for 3 hours at 37°. The LPS solution was flicked out, the plates rinsed thoroughly under running water and air dried overnight. The binding properties of the dried, LPS-coated plates remain unchanged for up to eight weeks. Excess binding sites were then blocked with 200 ul/well of 10 mg/ml BSA in 50 mM HEPES, 0.15M NaCl, pH 7.4 (HS buffer) for 30 minutes at 37° temperature with agitation, after which the BSA solution was flicked out.
LBP samples, APRS, or NRS were added in a total volume of 100 ul/well diluted in 1 mg/ml BSA in HS buffer. Binding of LBP was allowed to occur for 3 hours at 37°. The plate was then rinsed 3 times with 200 ul/well of 1 mg/ml BSA in HS buffer with agitation over a 10 minute interval.
Goat anti-LBP serum, 100 ul/well, diluted 2000 times in 1 mg/ml BSA in HS buffer was then incubated in the wells for 2 hours at 37°. The anti-LBP antiserum was then rinsed out as above and replaced for 1 hour at room temperature with 100 ul/well of peroxidase conjugated rabbit anti-goat IgG diluted 2500 times in 1 mg/ml BSA.
(§2) Finally, 100 ul/well o-phenylenediamine solution (4 mM o-phenylenediamine, 2.3 mM H2 O2, 50 mM citric acid, 133 mM Na2 HPO4, pH 5.0) were added and the resulting composition maintained until sufficient color had developed (5-15 minutes). The reaction was stopped by addition of 100 ul/well 5M H2 SO4 and the absorbance at 490 nm of each well was quantitated in a microtiter plate reader. Mean absorbances and standard errors of the means were calculated from 4-8 replicates of each well.
Inhibition of LBP binding to the plate was studied by premixing the compound under study at the desired concentration with 1 ug/ml purified LBP for 10 minutes at 37° before adding the mixture to the microtiter plate.

The target in experiment [2] is T1, purified lapine LBP. The experiment can be described thus: Binding of purified lapine LBP to LPS types and lipid A partial structures (microtiter plate). The settings on record: detected with goat anti-rabbit LBP and peroxidase conjugated rabbit anti-goat IgG. How it is done: as §1
(§3) Binding affinities of LBP for LPS are near 10^9 m^-1.
Microtiter plates were coated with LPS by incubating 100 ul/well of 30 ug/ml Re595 LPS in 0.1M Na2 Co3, 20 mM EDTA, pH 9.6 for 3 hours at 37°. The LPS solution was flicked out, the plates rinsed thoroughly under running water and air dried overnight. The binding properties of the dried, LPS-coated plates remain unchanged for up to eight weeks. Excess binding sites were then blocked with 200 ul/well of 10 mg/ml BSA in 50 mM HEPES, 0.15M NaCl, pH 7.4 (HS buffer) for 30 minutes at 37° temperature with agitation, after which the BSA solution was flicked out. […]
as §2

Experiment [3] deals with Gram-negative bacteria. The settings on record: similar conditions for LBP and BPI; cited from earlier work.
Experiment [4] can be described thus: Binding affinity of LBP for LPS. The settings on record: association constant.
Description: as §1, §3

The nature of experiment [5]: NRS reconstitution assay for LBP activity (C1.3 formation, retardation of LPS binding to HDL). It counts as biochemical, rabbit. The settings on record: added to NRS. As to the method:
Two examples of the NRS reconstitution assay for lipopolysaccharide binding protein (LBP) activity in the lapine (rabbit) system are shown in FIG. 5. In control studies, no systematic dependence on the assay results were observed when smaller total assay volumes; i.e., 0.5 or 0.25 ml rather than the standrard 1 ml, were used.
The basic method used during development of the purification procedure for LBP was a reconstitution assay in which fractions of acute phase serum were assayed for their ability to reconstitute "acute phase behavior" in NRS. The screening assay used was to mix a sample of the material to be tested with 1.0 ml of NRS at 37 degrees C. for 30 minutes. LPS and EDTA were then added to the concentrations given above, and the LPS-HDL binding reaction was allowed to proceed for ten minutes at 37 degrees before addition of CsCl and centrifugation. The 10 minute reaction time was chosen as a compromise between the times required for LPS to bind to HDL in NRS and APRS. […]
To quantitate LBP activity in purified fractions of APRS, the reconstitution assay just described was performed with a series of different amounts of the sample being assayed up to a maximum of 200 ul per ml NRS. After centrifugation and quantitation of the LPS in C1.3, a plot of percent LPS as C1.3 versus sample volume was made. […]

The mark [6] stands for this setting: concentration necessary to reduce the binding of 1 ug/ml LBP to the Re595 LPS-coated plate by 50 percent.
Setting [7] is: concentration necessary to reduce the binding of 1 ug/ml LBP to the plate by 50 percent.

Where two headings read alike, the source gives them in different places.

On to “0-[2-amino-2-deoxy-N^2 -(3-hydroxytetradecanoyl)-beta-D-glucopyranosyl]-(1-6)-amino-2-deoxy-N^2 -(3-hydroxytetradecanoyl)-alpha-D-glucopyranose 1,4'-bisphosphate [DADG-BSA]”, for which the ED50 in experiment [1] (setting [6]) is 540 ng/mL. In addition, the IC50 in experiment [1] (setting [7]) was 0.57 µM.
Regarding `Nc1ncnc2c1ncn2[C@@H]1O[C@H](COP(=O)(O)O)[C@@H](O)[C@H]1O` [AMP, adenosine-5'-monophosphate], the IC50 in experiment [1] (setting [6]) was more than 2880 µM; in experiment [1] (setting [7]), more than 2800 µM. For the same molecule, the “Inhibition of LBP binding to LPS plate, in words” value in experiment [1] was “ineffective”.
`CCCCCCCCCCCCCC(=O)OCC(COP(=O)(O)O)OC(=O)CCCCCCCCCCCCC` (stereo not drawn) [Dimyristoyl phosphatidic acid, dimyristoyl phosphatidic acid]: the figures for the IC50 in experiment [1] (setting [6]) and in experiment [1] (setting [7]) were 4.22 µM and 3.9 µM, respectively.
The matching figures for `CCCCCCCCCCCCCC(=O)O[C@H](CCCCCCCCCCC)CC(=O)O[C@@H]1[C@@H](NC(=O)C[C@@H](CCCCCCCCCCC)OC(=O)CCCCCCCCCCC)[C@H](OC[C@H]2O[C@H](OP(=O)(O)O)[C@H](NC(=O)C[C@H](O)CCCCCCCCCCC)[C@@H](OC(=O)C[C@H](O)CCCCCCCCCCC)[C@@H]2O)O[C@H](CO)[C@H]1OP(=O)(O)O` [J5 LA (synthetic)]: 0.0222 µM and 0.02 µM.
On to `CCCCCCCCCCC[C@@H](O)CC(=O)N[C@H]1[C@@H](OP(=O)(O)O)O[C@H](CO)[C@@H](O)[C@@H]1OC(=O)C[C@H](O)CCCCCCCCCCC` [Lipid x], for which the IC50 in experiment [1] (setting [6]) is 3.93 µM; in experiment [1] (setting [7]), 3.9 µM. Further, the “Binding of LBP to the substance” value in experiment [2] was “only poorly”.
Take `CCCCCCCCCCC[C@@H](O)CC(=O)N[C@H]1[C@H](OC[C@H]2O[C@H](OP(=O)(O)O)[C@H](NC(=O)C[C@H](O)CCCCCCCCCCC)[C@@H](OC(=O)C[C@H](O)CCCCCCCCCCC)[C@@H]2O)O[C@H](CO)[C@@H](OP(=O)(O)O)[C@@H]1OC(=O)C[C@H](O)CCCCCCCCCCC` [precursor IVA]: the “Binding of LBP to the substance” value in experiment [2] is listed as “bind”.
Turning to Dextran sulfate, in experiment [1] (setting [6]), the ED50 amounted to 73 ng/mL. Further, in experiment [1], the “Inhibition of LBP binding to LPS plate, in words” value is “fairly good ligands”.
The matching figures for Heparin: 21,000 ng/ml and “inhibitory only at high concentrations”.
The matching figures for Lipoteichoic acid: 480 ng/mL and “fairly good ligands”.

B1: LBP: acute phase glycoprotein of about 60 kD that binds LPS and retards its binding to HDL (protein, UniProt P17454 27-482, looked up)
Lipopolysaccharide-binding …: TNPGLITRITDKGLEYAAREGLLALQRKLLEVTLPDSDGDFRIKHFGRAQYKFYSLKIPRFELLRGTLRPLPGQGLSLDISDAYIHVRGSWKVRKAFLRLKNSFDLYVKGLTISVHLVLGSESSGRPTVTTSSCSSDIQNVELDIEGDLEELLNLLQSQIDARLREVLESKICRQIEEAVTAHLQPYLQTLPVTTQIDSFAGIDYSLMEAPRATAGMLDVMFKGEIFPLDHRSPVDFLAPAMNLPEAHSRMVYFSISDYVFNTASLAYHKSGYWNFSITDAMVPADLNIRRTTKSFRPFVPLLANLYPNMNLELQGTVNSEQLVNLSTENLLEEPEMDIEALVVLPSSAREPVFRLGVATNVSATLTLNTRKITGFLKPGRLQVELKESKVGGFNVELLEALLNYYILNNLYPKVNEKLAHRFPLPLLRHIQLYDLLLQTHENFLLVGANIQYRRV
B1: the Bactericidal effect entry in experiment [3] is recorded as “no bactericidal effects”. In addition, the “Binding affinities of LBP for LPS” value in experiment [4] is on record as ~10^9 m^-1. In experiment [5], the “Retardation of LPS binding to HDL / reconstitution of acute phase behavior in normal rabbit serum” value is “retards binding”.

B2: BPI: bactericidal/permeability increasing protein, a product of neutrophils (protein, UniProt P17213 32-487, looked up)
Bactericidal …: VNPGVVVRISQKGLDYASQQGTAALQKELKRIKIPDYSDSFKIKHLGKGHYSFYSMDIREFQLPSSQISMVPNVGLKFSISNANIKISGKWKAQKRFLKMSGNFDLSIEGMSISADLKLGSNPTSGKPTITCSSCSSHINSVHVHISKSKVGWLIQLFHKKIESALRNKMNSQVCEKVTNSVSSELQPYFQTLPVMTKIDSVAGINYGLVAPPATTAETLDVQMKGEFYSENHHNPPPFAPPVMEFPAAHDRMVYLGLSDYFFNTAGLVYQEAGVLKMTLRDDMIPKESKFRLTTKFFGTFLPEVAKKFPNMKIQIHVSASTPPHLSVQPTGLTFYPAVDVQAFAVLPNSSLASLFLIGMHTTGSMEVSAESNRLVGELKLDRLLLELKHSNIGPFPVELLQDIMNYIVPILVLPRVNEKLQKGFPLPTPARVQLYNVVLQPHQNFLLFGADVVYK
In the case of B2, the Bactericidal effect result in experiment [3] was “kills”.

B3: rabbit CRP: rabbit C-reactive protein (protein, UniProt P02742 21-225, looked up)
C-reactive protein: AGMHKKAFVFPKESDNSYVSLNAQLKKPLKAFTVCLYFYTDLSMTRGYSIFSYATRRQFNEILLFWSKDIGYSFSVGGDEIIFKVSDIPVDPTHLCASWESSTGIAELWVDGKPMVRKSLKKGYILGPEASIILGQDQDSFGGSFEKQQSLVGDIGNVNMWDYALSPEEINTIYAGGTFSPNVLDWRELTYQVRGEVHVKPQLWP
Turning to B3, the “Retardation of LPS binding to HDL / reconstitution of acute phase behavior in normal rabbit serum” value in experiment [5] is given as “does not reconstitute the observed phenomena”.

Source of the values: patent US5871937A, “Acute phase protein modulating endotoxic activity of lipopolysaccharides, assay methods and polypeptides” (priority 1997, dated 1999).
